From US20240197596A1, “COMPOUNDS USEFUL AS HAIR DYES” (National University of Singapore, priority 2021, published 2024)
Converted amounts (≈) assume the structure as drawn. “Also recorded” adds a separate entry of the source.

Columns and labels:
[1] = Thermodynamic solubility assay (modified shake flask, LC-MS/MS); conditions: Milli-Q water, pH=7, 25° C., 24 h, 3 separate determinations; for solubility at 24 h: 25 °C, pH 7, water, thermodynamic from solid
Procedure: The aqueous solubilities (pH=7) of these compounds were measured using the modified shake flask method and LC-MS/MS. Each hair dye was added into a 2 mL glass vial containing Milli-Q water (1 mL) to form the precipitates at 25° C. Then the mixture was subjected to a solubility-equilibrium stage. The vials were shaken at 300 rpm at 25° C. for 24 h. The precipitate was separated by centrifugation at 23,000 g for 20 min. Subsequently, 0.5 mL of supernatant was transferred into a 1 mL Eppendorf tube, and it was centrifuged again as mentioned above. The supernatant was then used for LC-MS/MS analysis.
The mass spectrometric analysis was performed by use of a AB SCIEX QTRAP 5500 tandem mass spectrometry (MS/MS) system (AB SCIEX, Framingham, MA, USA) operating in triple quadrupole positive mode (ESI+) equipped with an AB Sciex Turbo Ion Spray interface. Acquisition and analysis of data were performed with Analyst software ver. 1.4.2 (Applied Biosystems) which performed all chromatographic peak integration. For each hair dye, a standard curve consisting of four concentrations was established.
Solvent A was composed of 0.1% [v/v] formic acid in Milli-Q water while solvent B was composed of 0.1% [v/v] formic acid in acetonitrile. A mobile phase gradient pumped at 0.6 mL/min was used to elute the hair dyes from the column. The column was equilibrated for 1 min resulting in a total run time of 5 min. The injection volume was 5.0 μL for all derivatives. To prevent compound accumulation on the needle, 50% methanol in ACN was used as needle wash for 30 s per sample.

Hair nuance test = assay: Hair nuance test; parameters: key to L* / a* / b*: CIELAB L*, a*, b* coordinates; key to ΔE (total colour difference to natural hair): ΔE = √((L*−L0)²+(a*−a0)²+(b*−b0)²) vs untreated hair; conditions: for eventual colour of bleached hair, Type B: Type B (Oxidative, H2O2) formulation; for eventual colour of bleached hair, Type C: Type C (Oxidative with coupler resorcinol) formulation; for eventual colour of bleached hair, Type A: Type A (Non-oxidative) formulation
Procedure: 35 g of bleaching powder was mixed with 50 mL of developer then applied onto undyed black hair (wrapped in aluminium foil to enhance the bleaching process) and left on for 45 min. The hair was then rinsed with deionized water and shampoo and left to dry. This process was repeated twice.
Hair dye formulations were prepared from N1-N13 according to methods reported (New Journal of Chemistry. 2019; 43(41):16188-99), and with the compositions stated in Table 11 Bleached hair samples were immersed into the respective formulations for 20 min, then air dried for 20 min. Then they were shampooed twice and treated with conditioner for 5 min.
SkinColorCatch (Delfin Technologies Ltd, Kuopio, Finland) was used to measure CIELAB tristimulus L*, a* and b* values of the dyed hair samples and baseline L0, a0, b0 values from untreated hair. The difference in colour tone (ΔH) and the total colour difference (ΔE) were then derived from the values obtained with the equations below:
ΔH=√{square root over ((a*−a0)^2+(b*−b0)^2)}
ΔE=√{square root over ((L*−L0)^2+(a*−a0)^2+(b*−b0)^2)}

[2] = Skin permeation study, Franz diffusion cell; format: in vitro ADME, porcine; conditions: for Cumulative amount at 8th hour: 1% w/v in deionized water; for Cumulative amount at 8th hour / Permeated through skin into receptor / Recovered in donor compartment / Recovered in skin / Recovered in skin outside diffusion area / Recovered in skin swabs / Recovered on parafilm and in washes / Cumulative amount comparison of PPD vs derivatives (times less than PPD): 8 h; for Permeated through skin into receptor / Recovered in donor compartment / Recovered in skin / Recovered in skin outside diffusion area / Recovered in skin swabs / Recovered on parafilm and in washes: mass balance; for recovery at 8 h, 1 % w/v: pig, end of 8 h, read-out: Total recovery (mean percentage parent compound recovery)
Procedure: In each Franz cell, a piece of pig ear skin prepared to a thickness of […] was clamped securely. 5 mL of PBS solution was added to the receiver compartment which was purged of air bubbles to ensure maximal contact of the skin piece with the solution. Donor solution was prepared by dissolving N1-N13 in deionized water at 1% w/v, and 900 μL was added to the donor compartment. The study was conducted for 8 h, and aliquots of 200 μL were removed from the receiver solution and topped up with fresh PBS at each timepoint of 15-minutes intervals for the first hour and every hour after that.
For mass balance, at the end of 8 h, skin pieces and swabs of the top and bottom surface of the skin were collected and stored in ACN for N1-N13 extraction. Donor solution and receiver solution were also collected.
The aliquot samples collected were subjected to 2-step extraction using 750 μL of dichloromethane (DCM). […] The solvent was dried using the TurboVap, and then reconstituted with 198 μL of 0.1% formic acid in 50% methanol in water and spiked with 2 μL of ANP (internal standard). The processed aliquot samples and mass balance samples were then sent for analysis using LC-MS/MS. The compounds' steady state fluxes and permeability coefficients were then calculated by fitting the solution to Fick's […] of diffusion at the steady state (linear part) of each experimental cumulative amount curve.

THP-1 cells = assay: MTT assay on THP-1 cells (CV75); format: cell-based, human; conditions: THP-1 cells, 24 h
Procedure: THP-1 (human acute monocytic leukaemia cell line) cell suspension was adjusted to 1×10^5 cells per well and seeded in 96-well plates. The plate was incubated at 37° C. with 5% CO2. After 24 h, 10 mM stock solutions of N1-N13 were prepared in autoclaved milli-Q water. A series of concentrations diluted in media was prepared and added to the wells. Each concentration was performed in 6-replicates, and seeded wells with only media and no compound were used as controls while wells with only media were used as blanks. The plate was incubated for 24 h, after which 100 μL of MTT reagent was added and the plate was further incubated for 3 h before adding 100 μL of DMSO. Subsequently, the plate was shaken for 20 min, and then absorbance at 570 nm was determined using a Bio-Tek plate reader. Percentage cell viability was calculated and CV75 values were determined.

[3] = Type C (Oxidative with coupler resorcinol)

| solubility at 24 h [1] | Permeated through skin into receptor [2] | Recovered in donor compartment [2] | SMILES | L* (Hair nuance test; Type A (Non-oxidative)) | a* (Hair nuance test; Type A (Non-oxidative)) | b* (Hair nuance test; Type A (Non-oxidative)) | ΔE (total colour difference to natural hair) (Hair nuance test; Type A (Non-oxidative)) | ΔH (difference in colour tone) (Hair nuance test; Type A (Non-oxidative)) | L* (Hair nuance test; Type B (Oxidative)) | a* (Hair nuance test; Type B (Oxidative)) | b* (Hair nuance test; Type B (Oxidative)) | ΔE (total colour difference to natural hair) (Hair nuance test; Type B (Oxidative)) | ΔH (difference in colour tone) (Hair nuance test; Type B (Oxidative)) | eventual colour of bleached hair, Type B (Hair nuance test) | L* (Hair nuance test; [3]) | a* (Hair nuance test; [3]) | b* (Hair nuance test; [3]) | ΔE (total colour difference to natural hair) (Hair nuance test; [3]) | ΔH (difference in colour tone) (Hair nuance test; [3]) | eventual colour of bleached hair, Type C (Hair nuance test) | further results |
| --- | --- | --- | --- | --- | --- | --- | --- | --- | --- | --- | --- | --- | --- | --- | --- | --- | --- | --- | --- | --- | --- |
| 45 mg/mL (≈ 232 mM) | <0.001 % of applied compound dose | 93.7 % of applied compound dose | CCC(=O)COc1cc(N)ccc1N [Compound N11, 1-(2,5-diaminophenoxy)butan-2-one] | 36 | 5 | 8 | 28.33 | 5.32 | 9 | 0 | −1 | 2 | 1.41 | black colour | 32 | 18 | 25 | 37.8 | 6.14 | Pale Brown | eventual colour of bleached hair, Type A (Hair nuance test): Greyish brown; Cumulative amount at 8th hour [2]: 0.00794 μg/cm^2; Cumulative amount comparison of PPD vs derivatives (times less than PPD) [2]: 680; Recovered in skin [2]: 0.06 % of applied compound dose; Recovered in skin outside diffusion area [2]: 0.002 % of applied compound dose; Recovered in skin swabs [2]: 0.025 % of applied compound dose; Recovered on parafilm and in washes [2]: 0.005 % of applied compound dose; recovery at 8 h, 1 % w/v [2]: 93.8 ± 1.3%; CV75 (concentration affording 75% cell viability), 1 × CV75 (THP-1 cells): 65.4 µg/mL |
| 78 to 100 mg/mL (≈ 428 to 549 mM) | <0.001 % of applied compound dose | 95.0 % of applied compound dose | CC(O)COc1cc(N)ccc1N (centres unmarked) [Compound N10, 1-(2,5-diaminophenoxy)propan-2-ol] | 25 | 12 | 6 | 20.61 | 4.53 | 11 | 1 | −2 | 3.74 | 1.93 | black colour | 30 | 18 | 18 | 32.46 | 5.69 | Brown | Solubility [1]: 78 + 2.5 mg/ml; eventual colour of bleached hair, Type A (Hair nuance test): Brownish Purple; Cumulative amount at 8th hour [2]: 0.008 μg/cm^2; Cumulative amount comparison of PPD vs derivatives (times less than PPD) [2]: 633; Recovered in skin [2]: 0.04 % of applied compound dose; Recovered in skin outside diffusion area [2]: 0.003 % of applied compound dose; Recovered in skin swabs [2]: 0.05 % of applied compound dose; Recovered on parafilm and in washes [2]: 0.006 % of applied compound dose; recovery at 8 h, 1 % w/v [2]: 95.1 ± 1.4%; CV75 (concentration affording 75% cell viability), 1 × CV75 (THP-1 cells): 117 µg/mL |
| 65 to 72 mg/mL (≈ 386 to 428 mM) | <0.001 % of applied compound dose | 94.5 % of applied compound dose | Nc1ccc(N)c(OCCO)c1 [Compound N9, 2-(2,5-diaminophenoxy)ethan-1-ol] | 23 | 8 | 10 | 18.46 | 4.29 | 32 | 0 | 4 | 23.19 | 4.81 | brown colour | 29 | 19 | 19 | 32.93 | 5.73 | vibrant blue colours and Blue | Solubility [1]: 72 + 3.4 mg/ml; eventual colour of bleached hair, Type A (Hair nuance test): brown colour; Cumulative amount comparison of PPD vs derivatives (times less than PPD) [2]: 445; Recovered in skin [2]: 0.05 % of applied compound dose; Recovered in skin outside diffusion area [2]: 0.0022 % of applied compound dose; Recovered in skin swabs [2]: 0.03 % of applied compound dose; Recovered on parafilm and in washes [2]: 0.003 % of applied compound dose; recovery at 8 h, 1 % w/v [2]: 94.6 ± 1.5%; CV75 (concentration affording 75% cell viability), 1 × CV75 (THP-1 cells): 126 µg/mL |

| SMILES | solubility at 24 h [1] | Permeated through skin into receptor [2] | Recovered in donor compartment [2] | L* (Hair nuance test; Type A (Non-oxidative)) | a* (Hair nuance test; Type A (Non-oxidative)) | b* (Hair nuance test; Type A (Non-oxidative)) | ΔE (total colour difference to natural hair) (Hair nuance test; Type A (Non-oxidative)) | ΔH (difference in colour tone) (Hair nuance test; Type A (Non-oxidative)) | L* (Hair nuance test; Type B (Oxidative)) | a* (Hair nuance test; Type B (Oxidative)) | b* (Hair nuance test; Type B (Oxidative)) | ΔE (total colour difference to natural hair) (Hair nuance test; Type B (Oxidative)) | ΔH (difference in colour tone) (Hair nuance test; Type B (Oxidative)) | eventual colour of bleached hair, Type B (Hair nuance test) | L* (Hair nuance test; [3]) | a* (Hair nuance test; [3]) | b* (Hair nuance test; [3]) | ΔE (total colour difference to natural hair) (Hair nuance test; [3]) | ΔH (difference in colour tone) (Hair nuance test; [3]) | eventual colour of bleached hair, Type C (Hair nuance test) | further results |
| --- | --- | --- | --- | --- | --- | --- | --- | --- | --- | --- | --- | --- | --- | --- | --- | --- | --- | --- | --- | --- | --- |
| Nc1ccc(N)c(OCC2CO2)c1 (centres unmarked) [Compound N4, 2-(oxiran-2-ylmethoxy)benzene-1,4-diamine] | 65 to 72 mg/mL (≈ 361 to 400 mM) | <0.001 % of applied compound dose | 98.9 % of applied compound dose | 49 | 5 | 29 | 49.1 | 28.4 | 40 | 6 | 16 | 35.0 | 16.2 | Coffee brown | 22 | 1 | −13 | 19.1 | 14.0 | vibrant blue colours; also recorded: Admiral blue | Solubility [1]: 70 + 4.6 mg/ml; Cumulative amount at 8th hour [2]: 0.0104 μg/cm^2; Recovered in skin [2]: 0.02 % of applied compound dose; Recovered in skin outside diffusion area [2]: 0.005 % of applied compound dose; Recovered in skin swabs [2]: 0.03 % of applied compound dose; Recovered on parafilm and in washes [2]: 0.008 % of applied compound dose; recovery at 8 h, 1 % w/v [2]: 99 ± 1.15%; CV75 (concentration affording 75% cell viability), 1 × CV75 (THP-1 cells): 62.3 µg/mL |
